In patent US9951021B2, “Compounds for inhibiting c-Myc/Max/DNA complex formation” (NATIONAL CANCER CENTER, priority 2016, dated 2018):

Target: T1, recombinant c-Myc/Max (Homo sapiens, UniProt P01106+P61244)
T1 construct: made in house
Assay: Electrophoretic mobility shift assay (EMSA): inhibitory activity on DNA binding of recombinant c-Myc/Max
Conditions: read-out: protein assay IC50
Protocol: 1) Preparation of Recombinant c-Myc and Max Proteins
Recombinant proteins were prepared as described in the following references: K. C. Jung et al., Fatty Acids, Inhibitors for the DNA Binding of c-Myc/Max Dimer, Suppress Proliferation and Induce Apoptosis of Differentiated HL-60 Human Leukemia Cell, Leukemia, 2006, 20(1), 122-7 or Kyung-Chae Jeong et al., Small-Molecule Inhibitors of c-Myc Transcriptional Factor Suppress Proliferation and Induce Apoptosis of Promyelocytic Leukemia Cell via Cell Cycle Arrest, Mol. BioSyst., 2010, 6, 1503-1509.
2) Electrophoretic Mobility Shift Assay (EMSA)
The inhibitory activity of each candidate compound on DNA binding of recombinant c-Myc/Max was measured using an electrophoretic mobility shift assay (EMSA). The ratio of protein-DNA complexes in each sample was evaluated by measuring band intensity. The oligonucleotides (E-box) corresponding to the consensus binding site of Myc/Max were dimerized through an annealing process. The protein mixture was incubated at room temperature for 5 minutes, and a DMSO solution containing each candidate compound was added thereto. The mixture was further incubated for 5 minutes, and the biotinylated DNA was added. To achieve a state of equilibrium, the final mixture was incubated at room temperature for 10 minutes. The protein-DNA complexes were separated from unbound free DNA by pre-electrophoresis using 8% polyacrylamide gel and 1×TBE buffer. After pre-electrophoresis, electrophoresis was performed at 120 V for 1 hour in 1×TBE buffer. Each band was visualized using HRP-conjugated streptavidin and an ECL solution, and band intensity was measured using image analysis software.

T1 sequence (P01106 whole entry): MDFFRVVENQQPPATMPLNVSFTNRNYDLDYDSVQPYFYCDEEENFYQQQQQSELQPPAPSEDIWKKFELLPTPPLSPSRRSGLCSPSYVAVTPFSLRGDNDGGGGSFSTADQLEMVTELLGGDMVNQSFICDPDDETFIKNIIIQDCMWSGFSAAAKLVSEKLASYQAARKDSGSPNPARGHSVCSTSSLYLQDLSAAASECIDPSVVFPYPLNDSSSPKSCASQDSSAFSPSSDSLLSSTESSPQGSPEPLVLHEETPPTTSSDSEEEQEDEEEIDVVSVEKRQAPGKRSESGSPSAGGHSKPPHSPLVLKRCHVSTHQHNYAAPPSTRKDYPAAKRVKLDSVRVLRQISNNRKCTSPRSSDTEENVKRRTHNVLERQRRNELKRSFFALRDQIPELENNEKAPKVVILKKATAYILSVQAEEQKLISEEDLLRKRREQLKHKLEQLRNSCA
T1 sequence (P61244 whole entry): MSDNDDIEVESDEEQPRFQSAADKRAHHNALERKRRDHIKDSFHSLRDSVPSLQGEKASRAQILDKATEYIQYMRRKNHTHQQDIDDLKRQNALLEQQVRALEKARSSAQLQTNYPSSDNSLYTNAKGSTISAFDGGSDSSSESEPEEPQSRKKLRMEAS

Row | SMILES | IC50 [nM]
1 | CC(=O)c1c([S+]([O-])Cc2ccc(-n3cccn3)nc2)[nH]c2c(Br)ccc(Cl)c2c1=O (stereo not shown) [Compound 99, 2-(((6-(1H-pyrazol-1-yl)pyridin-3-yl)methyl)sulfinyl)-3-acetyl-8-bromo-5-chloroquinolin-4(1H)-one] | < 1000
2 | CC(=O)c1c([S+]([O-])Cc2ccc(OC(F)(F)F)cc2)[nH]c2c(Br)ccc(Cl)c2c1=O (stereo not shown) [Compound 71, 3-acetyl-8-bromo-5-chloro-2-((4-(trifluoromethoxy)benzyl)sulfinyl)quinolin-4(1H)-one] | < 1000
3 | CC(=O)c1c(Sc2ccc(Br)cc2)[nH]c2c(Br)ccc(Cl)c2c1=O [Compound 16, 3-acetyl-8-bromo-2-((4-bromophenyl)thio)-5-chloroquinolin-4(1H)-one] | < 1000
4 | CC(=O)c1c([S+](C)[O-])n(Cc2ccc(F)c(Cl)c2)c2c(Br)ccc(Cl)c2c1=O (stereo not shown) [Compound 22, 3-acetyl-8-bromo-5-chloro-1-(3-chloro-4-fluorobenzyl)-2-(methylsulfinyl)quinolin-4(1H)-one] | < 1000
5 | CC(=O)c1c([S+]([O-])Cc2ccc(N)nc2)[nH]c2c(Br)ccc(Cl)c2c1=O (stereo not shown) [Compound 100, 3-acetyl-2-(((6-aminopyridin-3-yl)methyl)sulfinyl)-8-bromo-5-chloroquinolin-4(1H)-one] | < 1000
6 | COc1cccc(C[S+]([O-])c2[nH]c3c(Br)ccc(Cl)c3c(=O)c2C(C)=O)c1 (stereo not shown) [Compound 55, 3-acetyl-8-bromo-5-chloro-2-((3-methoxybenzyl)sulfinyl)quinolin-4(1H)-one] | < 1000
7 | CC(=O)c1c([S+]([O-])Cc2cccc(C#N)c2)[nH]c2c(Br)ccc(Cl)c2c1=O (stereo not shown) [Compound 28, 3-(((3-acetyl-8-bromo-5-chloro-4-oxo-1,4-dihydroquinolin-2-yl)sulfinyl)methyl)benzonitrile] | < 1000
8 | CC(=O)c1c([S+]([O-])Cc2ccc(C(F)(F)F)o2)[nH]c2c(F)ccc(F)c2c1=O (stereo not shown) [Compound 81, 3-acetyl-5,8-difluoro-2-(((5-(trifluoromethyl)furan-2-yl)methyl)sulfinyl)quinolin-4(1H)-one] | < 1000
9 | CC(=O)c1c([S+]([O-])C(C)c2ccccc2)[nH]c2c(Br)ccc(Cl)c2c1=O (stereo not shown) [Compound 26, 3-acetyl-8-bromo-5-chloro-2-((1-phenylethyl)sulfinyl)quinolin-4(1H)-one] | < 1000
10 | COC(=O)c1ccc(C[S+]([O-])c2[nH]c3c(Cl)ccc(Cl)c3c(=O)c2C(C)=O)cc1 (stereo not shown) [Compound 91, methyl 4-(((3-acetyl-5,8-dichloro-4-oxo-1,4-dihydroquinolin-2-yl)sulfinyl)methyl)benzoate] | < 1000
11 | CC(=O)c1c([S+]([O-])Cc2cccc(S(F)(F)(F)(F)F)c2)[nH]c2c(Br)ccc(Cl)c2c1=O (stereo not shown) [Compound 77, 3-acetyl-8-bromo-5-chloro-2-((3-(pentafluoro-λ6-sulfanyl)benzyl)sulfinyl)quinolin-4(1H)-one] | < 1000
12 | CC(=O)c1c([S+](C)[O-])n(C(C)=O)c2c(Br)ccc(Cl)c2c1=O (stereo not shown) [Compound 19, 1,1′-(8-bromo-5-chloro-2-(methylsulfinyl)-4-oxoquinoline-1,3-(4H)-diyl)bis(ethan-1-one)] | < 1000
13 | CSc1[nH]c2c(Br)ccc(Cl)c2c(=O)c1C(C)=O [Compound 2, 3-acetyl-8-bromo-5-chloro-2-(methylthio)quinolin-4(1H)-one] | < 1000
14 | CC(=O)c1c([S+]([O-])Cc2ccc(Cl)cc2)[nH]c2c(Br)ccc(Cl)c2c1=O (stereo not shown) [Compound 11, 3-acetyl-8-bromo-5-chloro-2-((4-chlorobenzyl)sulfinyl)quinolin-4(1H)-one] | < 1000
15 | CC(=O)c1c([S+]([O-])Cc2ccc([N+](=O)[O-])cc2)[nH]c2c(Cl)ccc(Cl)c2c1=O (stereo not shown) [Compound 57, 3-acetyl-5,8-dichloro-2-((4-nitrobenzyl)sulfinyl)quinolin-4(1H)-one] | < 1000
16 | CC(=O)c1c([S+]([O-])Cc2c(F)cccc2Cl)[nH]c2c(Br)ccc(Cl)c2c1=O (stereo not shown) [Compound 74, 3-acetyl-8-bromo-5-chloro-2-((2-chloro-6-fluorobenzyl)sulfinyl)quinolin-4(1H)-one] | < 1000
17 | CC(=O)c1c([S+]([O-])Cc2cc(C)on2)[nH]c2c(Br)ccc(Cl)c2c1=O (stereo not shown) [Compound 51, 3-acetyl-8-bromo-5-chloro-2-(((5-methylisoxazol-3-yl)methyl)sulfinyl)quinolin-4(1H)-one] | < 1000

Row | SMILES | IC50 [nM]
18 | CC(=O)c1c(SCc2ccc(Cl)cc2)[nH]c2c(Br)ccc(Cl)c2c1=O [Compound 10, 3-acetyl-8-bromo-5-chloro-2-((4-chlorobenzyl)thio)quinolin-4(1H)-one] | < 1000
19 | CC(=O)c1c([S+]([O-])c2ccccc2)[nH]c2c(Br)ccc(Cl)c2c1=O (stereo not shown) [Compound 13, 3-acetyl-8-bromo-5-chloro-2-(phenylsulfinyl)quinolin-4(1H)-one] | < 1000
20 | CC(=O)c1c([S+]([O-])Cc2ccc(C#N)s2)[nH]c2c(Br)ccc(Cl)c2c1=O (stereo not shown) [Compound 98, 5-(((3-acetyl-8-bromo-5-chloro-4-oxo-1,4-dihydroquinolin-2-yl)sulfinyl)methyl)thiophene-2-carbonitrile] | < 1000
21 | CC(=O)c1c([S+]([O-])Cc2cc(C)on2)[nH]c2c(F)ccc(F)c2c1=O (stereo not shown) [Compound 82, 3-acetyl-5,8-difluoro-2-(((5-methylisoxazol-3-yl)methyl)sulfinyl)quinolin-4(1H)-one] | < 1000
22 | COCCNc1ccc(C[S+]([O-])c2[nH]c3c(Br)ccc(Cl)c3c(=O)c2C(C)=O)cn1 (stereo not shown) [Compound 105, 3-acetyl-8-bromo-5-chloro-2-(((6-((2-methoxyethyl)amino)pyridin-3-yl)methyl)sulfinyl)quinolin-4(1H)-one] | < 1000
23 | CC(=O)c1c([S+]([O-])Cc2ccc(F)cc2F)[nH]c2c(Br)ccc(Cl)c2c1=O (stereo not shown) [Compound 29, 3-acetyl-8-bromo-5-chloro-2-((2,4-difluorobenzyl)sulfinyl)quinolin-4(1H)-one] | < 1000
24 | CC(=O)c1c([S+]([O-])Cc2cnc3[nH]ccc3c2)[nH]c2c(Br)ccc(Cl)c2c1=O (stereo not shown) [Compound 107, 2-(((1H-pyrrolo[2,3-b]pyridin-5-yl)methyl)sulfinyl)-3-acetyl-8-bromo-5-chloroquinolin-4(1H)-one] | < 1000
25 | COc1cc(C[S+]([O-])c2[nH]c3c(Br)ccc(Cl)c3c(=O)c2C(C)=O)cc(OC)c1 (stereo not shown) [Compound 59, 3-acetyl-8-bromo-5-chloro-2-((3,5-dimethoxybenzyl)sulfinyl)quinolin-4(1H)-one] | < 1000
26 | CSc1c(C(C)=O)c(=O)c2c(Cl)ccc(Br)c2n1S(=O)(=O)c1ccc([N+](=O)[O-])cc1 [Compound 38, 3-acetyl-8-bromo-5-chloro-2-(methylthio)-1-((4-nitrophenyl)sulfonyl)quinolin-4(1H)-one] | < 1000
27 | CC(=O)c1c([S+]([O-])Cc2ccc(S(F)(F)(F)(F)F)cc2)[nH]c2c(F)ccc(F)c2c1=O (stereo not shown) [Compound 80, 3-acetyl-5,8-difluoro-2-((4-(pentafluoro-λ6-sulfanyl)benzyl)sulfinyl)quinolin-4(1H)-one] | < 1000
28 | COc1cccc2[nH]c([S+]([O-])Cc3ccc(S(F)(F)(F)(F)F)cc3)c(C(C)=O)c(=O)c12 (stereo not shown) [Compound 93, 3-acetyl-5-methoxy-2-((4-(pentafluoro-λ6-sulfanyl)benzyl)sulfinyl)quinolin-4(1H)-one] | < 1000
29 | O=C(c1ccccc1)c1c([S+]([O-])Cc2ccc(S(F)(F)(F)(F)F)cc2)[nH]c2c(F)ccc(F)c2c1=O (stereo not shown) [Compound 87, 3-benzoyl-5,8-difluoro-2-((4-(pentafluoro-λ6-sulfanyl)benzyl)sulfinyl)quinolin-4(1H)-one] | < 1000
30 | CC(=O)c1c([S+]([O-])Cc2ccc(S(F)(F)(F)(F)F)cc2)[nH]c2c(Br)ccc(Cl)c2c1=O (stereo not shown) [Compound 68, 3-acetyl-8-bromo-5-chloro-2-((4-(pentafluoro-16-sulfanyl)benzyl)sulfinyl)quinolin-4(1H)-one] | < 1000
31 | CC(=O)c1c([S+]([O-])Cc2ccc(NS(C)(=O)=O)cc2)[nH]c2c(Br)ccc(Cl)c2c1=O (stereo not shown) [Compound 103, N-(4-(((3-acetyl-8-bromo-5-chloro-4-oxo-1,4-dihydroquinolin-2-yl)sulfinyl)methyl)phenyl)methanesulfonamide] | < 1000
32 | CC(=O)c1c([S+]([O-])Cc2ccc(Cl)nc2)[nH]c2c(Br)ccc(Cl)c2c1=O (stereo not shown) [Compound 104, 3-acetyl-8-bromo-5-chloro-2-(((6-chloropyridin-3-yl)methyl)sulfinyl)quinolin-4(1H)-one] | < 1000
33 | CC(=O)c1c([S+]([O-])Cc2cc(F)cc(F)c2)[nH]c2c(Br)ccc(Cl)c2c1=O (stereo not shown) [Compound 46, 3-acetyl-8-bromo-5-chloro-2-((3,5-difluorobenzyl)sulfinyl)quinolin-4(1H)-one] | < 1000
34 | COc1cccc2[nH]c([S+]([O-])Cc3cc(C)on3)c(C(C)=O)c(=O)c12 (stereo not shown) [Compound 94, 3-acetyl-5-methoxy-2-(((5-methylisoxazol-3-yl)methyl)sulfinyl)quinolin-4(1H)-one] | < 1000
